The results in this text go back to ChEMBL document CHEMBL1201862, “PubChem BioAssay data set” (2004).

Molecules are shown by their SMILES. Calls of active or inactive are those of the source.

The AC50 is the concentration giving half of the maximal activity seen.

The nature of assay [1]: Luminescence-based cell-based high throughput dose response assay to identify activators of the DAF-12 from the parasite S. stercoralis (ssDAF-12). Format: functional.
Assay [2] has as its target T1, Oxysterols receptor LXR-beta (Homo sapiens, UniProt P55055).
T1 sequence (P55055 whole entry): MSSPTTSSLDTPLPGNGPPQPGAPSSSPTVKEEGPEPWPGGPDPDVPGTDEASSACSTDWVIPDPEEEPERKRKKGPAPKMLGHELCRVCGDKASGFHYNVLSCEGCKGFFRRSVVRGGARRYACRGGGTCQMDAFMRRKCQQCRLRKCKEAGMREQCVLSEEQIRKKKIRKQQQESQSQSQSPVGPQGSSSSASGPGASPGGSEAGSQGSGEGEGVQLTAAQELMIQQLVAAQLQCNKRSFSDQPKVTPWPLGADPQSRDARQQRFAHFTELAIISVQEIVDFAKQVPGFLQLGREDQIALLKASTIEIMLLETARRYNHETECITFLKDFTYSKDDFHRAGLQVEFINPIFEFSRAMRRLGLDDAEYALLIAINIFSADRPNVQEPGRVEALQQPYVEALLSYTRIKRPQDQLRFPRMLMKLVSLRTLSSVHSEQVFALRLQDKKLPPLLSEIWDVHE
Kind of assay: LXR agonists, Gal4 luciferase reporter, dose response, counter-screen for ssDAF-12 agonist project, cell-based, luminescence, HEK293, S. stercoralis campaign (AID 720737). Type of assay: functional. Conditions: read-out: IC50 (the source's name). On the technique in general: In a reporter assay the amount or activity of a reporter protein is the signal.

A short description of assay [3]: A cytotoxicity screen of small molecule inhibitors of the PhoP region in Salmonella typhi identified in the primary screen. [Related pubchem assays: 1850, 1864, 1985 ]. Format: functional.
Assay [4] addresses T2, Estrogen receptor beta (Homo sapiens, UniProt Q92731).
Assay [5] addresses T2, Estrogen receptor beta. The experiment in a line: blockers of SRC-3 recruitment to ERβ – biochemical, ELISA, streptavidin-HRP readout, orthogonal assay, confirmation (AID 1060). (In general: ELISA stands for enzyme-linked immunosorbent assay.)
Assay [6] is described as follows: Trypanosoma cruzi growth suppression in host cells – NIH3T3 host cells, beta-gal luminescence, confirmation (AID 2044).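 Further: intracellular parasites grown in NIH/3T3 mouse fibroblasts as host cells; luminescent beta-galactosidase reporter signal from transgenic T. cruzi replicating inside host cells; inhibitors lower the luminescence signal.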 Type of assay: functional, cell-based.
Assay [7] is described as follows: NIH3T3 cell viability loss – ATP luminescence, mouse fibroblasts, counter-screen, dose response (AID 2010).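 Further: cells exposed to compound for about 90 hours before reading.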 Type of assay: functional, cell-based.
The target of another assay is Nonstructural protein 1 (Influenza A virus, UniProt Q194T2). Format: functional, Influenza A virus (A/California/07/2009(H1N1)).
Sequence of Nonstructural protein 1 (Q194T2 whole entry): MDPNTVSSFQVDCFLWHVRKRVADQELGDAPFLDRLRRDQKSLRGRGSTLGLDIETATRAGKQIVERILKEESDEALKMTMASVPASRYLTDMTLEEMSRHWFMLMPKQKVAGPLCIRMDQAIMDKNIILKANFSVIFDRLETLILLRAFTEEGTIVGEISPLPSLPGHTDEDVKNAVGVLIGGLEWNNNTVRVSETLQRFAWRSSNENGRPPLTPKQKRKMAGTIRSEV
Assay [8] is described as follows: cells.
Assay [9] concerns the target NAD-dependent protein deacylase sirtuin-5, mitochondrial (Homo sapiens, UniProt Q9NXA8). The experiment in a line: sirtuin-5 deacylation blockers, concentration series – biochemical, fluorescence imaging, cherry-pick, set 5, dose response (AID 720591).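 Further: desuccinylation of succinyl peptide AMC substrate read as fluorescence after trypsin release; potency of inhibitors that lower fluorescence and may act on trypsin instead.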
Assay [10] can be described thus: viability inhibitors of stage V gametocytes – luminescence, dose response (AID 1117278).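 Further: gametocytes exposed to compound for 24 hours.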 Format: functional, cell-based.
The nature of assay [11]: viability loss in human Jurkat cells – cell-based, luminescence, cytotoxicity control for P. falciparum gametocyte viability project, dose response (AID 1117277).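 Further: potency reflects loss of cellular ATP meaning fewer viable cells.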 Type of assay: functional.
For assay [12], the target named is T3, Calpain-2 catalytic subunit (Sus scrofa, UniProt P43367).
T3 sequence (P43367 whole entry): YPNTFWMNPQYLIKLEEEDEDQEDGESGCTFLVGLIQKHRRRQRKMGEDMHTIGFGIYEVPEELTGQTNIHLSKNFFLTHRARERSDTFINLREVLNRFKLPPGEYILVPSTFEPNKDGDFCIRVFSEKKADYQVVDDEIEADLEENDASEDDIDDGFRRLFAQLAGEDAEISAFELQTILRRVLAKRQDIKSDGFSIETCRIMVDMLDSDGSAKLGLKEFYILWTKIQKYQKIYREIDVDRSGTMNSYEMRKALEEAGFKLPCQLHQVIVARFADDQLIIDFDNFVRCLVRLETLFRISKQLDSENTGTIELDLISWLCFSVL
The experiment in a line: m-calpain protease blockers, concentration series – biochemical, fluorogenic peptide substrate, dose response (AID 1420). Format: functional.

A short description of assay [13]: reduced cellular PGC1a acetyl-lysine signal – cell-based, cherry-picked samples, dose response (AID 720514).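 Further: potency may reflect raised or lowered acetylation signal.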 Type of assay: functional.
Assay [14] addresses T1, Oxysterols receptor LXR-beta. Type of assay: functional, cell-based.
Assay [15] can be described thus: cells. The source holds these as a separate data set.
For assay [16], the target named is T4, Polyadenylate-binding protein 1 (Homo sapiens, UniProt P11940). The experiment in a line: MLLE binding blockers, Cy5 peptide tracer – biochemical, fluorescence polarization, Cy5-PAM2 peptide, secondary, miRNA deadenylation inhibitor project, dose response (AID 602260). Particulars: read-out: IC50_Mean. Type of assay: functional. A general note: Polarisation of emitted light reports the rotation of a fluorescent probe.
T4 sequence (P11940 whole entry): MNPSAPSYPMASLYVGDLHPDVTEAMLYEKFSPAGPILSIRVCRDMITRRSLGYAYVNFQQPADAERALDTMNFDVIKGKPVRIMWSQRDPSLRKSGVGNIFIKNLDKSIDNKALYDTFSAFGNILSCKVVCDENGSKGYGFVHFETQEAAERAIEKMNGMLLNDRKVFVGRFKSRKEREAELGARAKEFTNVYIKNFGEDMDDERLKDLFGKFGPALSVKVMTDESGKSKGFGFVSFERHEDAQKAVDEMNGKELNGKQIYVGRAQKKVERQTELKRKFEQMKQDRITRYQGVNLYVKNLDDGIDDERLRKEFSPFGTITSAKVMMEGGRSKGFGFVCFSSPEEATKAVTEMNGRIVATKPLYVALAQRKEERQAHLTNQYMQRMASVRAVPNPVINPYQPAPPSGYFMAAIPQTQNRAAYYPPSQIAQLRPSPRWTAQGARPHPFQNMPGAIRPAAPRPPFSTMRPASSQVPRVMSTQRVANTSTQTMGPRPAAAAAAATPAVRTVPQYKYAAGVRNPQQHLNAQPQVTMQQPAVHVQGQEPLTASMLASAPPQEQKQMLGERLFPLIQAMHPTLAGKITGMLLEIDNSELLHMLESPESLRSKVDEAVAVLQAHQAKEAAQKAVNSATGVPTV

Assay [17] has as its target T4, Polyadenylate-binding protein 1. The experiment in a line: MLLE domain peptide-binding blockers, IC50 – biochemical, fluorescence polarization, FITC-PAM2 peptide, dose response (AID 602259). Format: functional. Conditions: read-out: IC50_Mean.
The next assay has as its target T5, Protein skinhead-1 (Caenorhabditis elegans, UniProt P34707).
T5 sequence (P34707 whole entry): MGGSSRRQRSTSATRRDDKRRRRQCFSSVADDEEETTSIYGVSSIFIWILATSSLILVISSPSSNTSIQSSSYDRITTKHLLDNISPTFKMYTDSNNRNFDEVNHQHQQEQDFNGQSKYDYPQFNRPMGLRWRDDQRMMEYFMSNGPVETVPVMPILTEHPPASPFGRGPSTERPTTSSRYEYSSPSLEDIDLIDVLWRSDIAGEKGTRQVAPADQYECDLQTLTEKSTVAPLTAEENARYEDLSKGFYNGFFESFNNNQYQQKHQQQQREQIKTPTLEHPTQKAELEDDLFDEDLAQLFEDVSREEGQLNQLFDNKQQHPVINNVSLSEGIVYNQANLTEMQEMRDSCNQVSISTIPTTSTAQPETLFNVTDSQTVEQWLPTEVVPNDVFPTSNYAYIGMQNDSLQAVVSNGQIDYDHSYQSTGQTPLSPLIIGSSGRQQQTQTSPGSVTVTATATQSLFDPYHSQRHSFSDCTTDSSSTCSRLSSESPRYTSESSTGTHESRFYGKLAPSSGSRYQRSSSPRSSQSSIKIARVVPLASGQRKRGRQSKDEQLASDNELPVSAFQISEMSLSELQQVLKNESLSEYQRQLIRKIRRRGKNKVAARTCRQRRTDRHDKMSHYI
Type of assay: functional.

For assay [18], the target named is T6, Microphthalmia-associated transcription factor (Homo sapiens, UniProt O75030).
T6 sequence (O75030 whole entry): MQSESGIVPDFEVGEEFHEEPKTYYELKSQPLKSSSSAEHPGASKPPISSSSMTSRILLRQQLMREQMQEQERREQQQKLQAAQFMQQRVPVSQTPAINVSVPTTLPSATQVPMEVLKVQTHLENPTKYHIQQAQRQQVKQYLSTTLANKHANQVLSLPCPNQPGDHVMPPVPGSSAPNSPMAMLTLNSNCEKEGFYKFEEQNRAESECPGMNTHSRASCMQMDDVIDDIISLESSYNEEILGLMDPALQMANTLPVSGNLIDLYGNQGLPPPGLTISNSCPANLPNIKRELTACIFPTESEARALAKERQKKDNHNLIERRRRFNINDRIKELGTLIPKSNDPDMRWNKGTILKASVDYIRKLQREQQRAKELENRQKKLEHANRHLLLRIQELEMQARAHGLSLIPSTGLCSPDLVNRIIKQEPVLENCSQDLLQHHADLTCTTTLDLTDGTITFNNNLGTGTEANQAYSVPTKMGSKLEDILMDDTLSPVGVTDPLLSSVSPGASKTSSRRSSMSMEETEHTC
The experiment in a line: reducers of TRPM1 reporter luminescence, concentration series – cell-based, SK-MEL-5, cherry-picked, set 3, MITF inhibitor project, dose response (AID 493073).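 Further: SK-MEL-5 melanoma cells with luciferase driven by the MITF target TRPM1 promoter.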 Format: functional.

Sequence of NAD-dependent protein deacylase sirtuin-5, mitochondrial (Q9NXA8 whole entry): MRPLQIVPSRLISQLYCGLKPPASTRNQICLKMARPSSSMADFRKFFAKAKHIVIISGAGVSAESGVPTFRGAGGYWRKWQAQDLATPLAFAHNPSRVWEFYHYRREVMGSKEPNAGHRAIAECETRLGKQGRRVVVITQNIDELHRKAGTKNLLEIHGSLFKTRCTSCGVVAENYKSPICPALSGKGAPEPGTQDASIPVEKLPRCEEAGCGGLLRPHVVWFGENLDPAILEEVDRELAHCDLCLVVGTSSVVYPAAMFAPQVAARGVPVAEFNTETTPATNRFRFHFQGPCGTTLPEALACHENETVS
T2 sequence (Q92731 whole entry): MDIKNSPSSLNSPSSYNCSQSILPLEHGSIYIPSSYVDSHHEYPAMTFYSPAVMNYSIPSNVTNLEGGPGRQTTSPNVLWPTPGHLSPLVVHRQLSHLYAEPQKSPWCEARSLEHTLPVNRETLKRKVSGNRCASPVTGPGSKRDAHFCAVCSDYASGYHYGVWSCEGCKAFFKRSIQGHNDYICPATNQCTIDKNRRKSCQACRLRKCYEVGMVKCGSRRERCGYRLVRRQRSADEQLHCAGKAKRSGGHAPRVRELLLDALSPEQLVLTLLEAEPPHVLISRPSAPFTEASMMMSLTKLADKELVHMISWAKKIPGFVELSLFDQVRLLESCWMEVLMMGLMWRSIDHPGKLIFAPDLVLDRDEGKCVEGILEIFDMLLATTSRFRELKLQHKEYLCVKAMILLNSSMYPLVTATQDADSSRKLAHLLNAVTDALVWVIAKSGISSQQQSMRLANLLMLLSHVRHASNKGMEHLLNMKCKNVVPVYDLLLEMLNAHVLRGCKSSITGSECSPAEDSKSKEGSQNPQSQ

As for `Cc1ccc(N/C=C/C(=O)c2ccccc2)cc1Br`, in assay [1], the IC50 was > 67.6 µM (inactive). In assay [2], the EC50 was > 67.6 µM (inactive).
Regarding `CC(C)NC1=NN=C(c2ccc(F)cc2)CS1`, the EC50 in [3] was > 50 µM (active).
For `Cc1noc(C)c1S(=O)(=O)N(CC(=O)O)c1ccc2c(c1)OCO2`, the IC50 on Estrogen receptor beta [4] is 9.71 µM (active); at Estrogen receptor beta [5], 0.084 µM (not active).
As for `O=C(Cc1cccs1)Nc1ccc(S(=O)(=O)Nc2ncccn2)cc1`, the IC50 at Estrogen receptor beta [4] was < 1.56 µM (active); against Estrogen receptor beta [5] it was 0.0699 µM (not active).
For `Cc1c(C)n(Cc2ccccc2)c2ccc(C(=O)OCCCN(C)C)cc12`, the EC50 was < 0.1 µM (active) in [6], > 30 µM (not active) in assay [7] and 0.153 µM (active) in the assay “cells [8]”. Also, at Nonstructural protein 1, the IC50 is 43.7 µM (active).
For `CCOC(=O)c1c(NC(=O)Cn2cnc([N+](=O)[O-])n2)sc2c1CCCC2`, the EC50 in [6] is < 0.1 µM (active); in assay [7], > 60 µM (not active); in the assay “cells [8]”, 0.121 µM (active).
Regarding `NC(=O)c1ccc(C(F)(F)F)cn1`, the AC50 in assay [9] is > 30 µM (inactive).
As for `CC(=O)Nc1ccccc1-c1nc2ccc(C(=O)N3CCN(c4cc(C)ccc4C)CC3)cc2nc1O`, in assay [3], the EC50 was > 50 µM (active).
As for `CCc1ccc(-c2ccc(C(=O)O)c(C)n2)cc1`, the IC50 in assay [10] was > 109 µM (inactive); in assay [11], > 83.2 µM (inactive).
As to `CCc1sc(C(=O)N2CCc3ccccc32)cc1C`, the IC50 in [12] was 9.39 µM (not active); in assay [1], > 67.5 µM (inactive). For the same compound, the EC50 in assay [2] was > 67.5 µM (inactive).
Turning to `Cc1ccc(S(=O)(=O)Nc2ccccc2C(=O)NCc2cccnc2)cc1`, in [13], the AC50 was 25.6 µM (active).
Take `COc1ccc(-c2cc3ccccc3c(=O)o2)cc1`: the EC50 (in [14]; in the assay “cells [15]”) was > 67.5 µM (inactive) throughout.
For `Cc1cc(C)c(NC(=O)CSc2nc3cc(Br)c[nH]c-3n2)c(C)c1`, in assay [9], the AC50 was > 30 µM (inactive).
Turning to `Cn1c(CNc2ccc(F)cc2)nc2ccccc21`, the IC50 in [1] is > 67.5 µM (inactive). Moreover, the EC50 in assay [2] was > 67.5 µM (inactive).
For `O=C1CCCC(=O)C1CS(=O)(=O)c1ccccc1`, the IC50 is > 66 µM (inactive) in [16], > 66 µM (inactive) in assay [17], > 109 µM (inactive) in assay [10] and > 83.2 µM (inactive) in assay [11].
Consider `c1ccc(-c2ccc(-c3ccccn3)s2)nc1`, for which the IC50 in assay [1] is > 67.6 µM (inactive). Moreover, the results for the EC50 (in assay [2]; in [14]; in the assay “cells [15]”) were > 67.6 µM (inactive), > 67.5 µM (inactive) and > 67.5 µM (inactive), respectively.
With `CC(C)CC(c1nnnn1Cc1ccco1)N1CCN(c2cccc(Cl)c2)CC1` (configuration not stated), in assay [3], the EC50 is > 50 µM (active).
On to `O=C(/C=C\Nc1cccc(F)c1)c1cccs1`, for which the IC50 at Protein skinhead-1 was 28.1 µM (active). The EC50 (in assay [14]; in the assay “cells [15]”) was > 67.5 µM (inactive) in each case.
Take `NC(=O)CC(NC(=O)c1ccccc1)c1ccc(NCC2CC2)c([N+](=O)[O-])c1` (configuration not stated): the IC50 in assay [10] is > 109 µM (inactive); in assay [11] it was > 83.3 µM (inactive).
Taken in the same sequence, the figures for `CCOC(=O)c1c(NS(=O)(=O)c2cccc(OC)c2)sc2c1CCC2` were > 109 µM (inactive) and > 83.3 µM (inactive).
Regarding `CN(CC(=O)Nc1ccc2c(c1)CCC2)CC(=O)Nc1ccccc1Br`, the IC50 was > 109 µM (inactive) in assay [10] and > 83.3 µM (inactive) in assay [11].
Take `CC1C(=O)N2CCCc3cc(S(=O)(=O)NCCc4ccccc4)cc1c32` (configuration not stated): the AC50 in assay [9] was > 30 µM (inactive).
As to `COC(=O)c1ccccc1N(C)S(=O)(=O)c1cc2c(cc1C)OCC(=O)N2`, the half-maximal activity concentration (AC50) in assay [13] was 24.1 µM (active).
As for `CCc1ccc(NS(=O)(=O)c2c(C)noc2C)cc1`, the AC50 in assay [9] is > 30 µM (inactive).
As for `C/C(=N\Nc1ccc(C)c(Cl)c1)c1cccnc1`, in assay [3], the EC50 was > 50 µM (active).
On to `O=C(N/N=C/c1ccc(-c2ccccc2Cl)o1)c1ccccc1`, for which the EC50 in assay [6] was < 0.1 µM (active); in [7], > 60 µM (not active); in the assay “cells [8]”, 0.035 µM (active).
Take `CO[C@H]1CN(C)C(=O)c2cc(NC(=O)NC(C)C)ccc2OC[C@H](C)N(Cc2ccc(-c3ccccn3)cc2)C[C@@H]1C`: the half-maximal activity concentration (AC50) in assay [13] is 22.6 µM (active).
As to `O=C(N/N=C/c1ccc(N2CCOCC2)cc1)c1ccc(O)cc1`, the EC50 in assay [3] is > 50 µM (active).
For `Clc1cccc(-c2nc(-c3ccccn3)no2)c1`, the half-maximal activity concentration (AC50) in assay [18] is 5.92 µM (active). Also, the EC50 (in assay [14]; in the assay “cells [15]”) was > 67.5 µM (inactive) each time.
